According to patent publication US20250339409A1, “USES OF PAN BET INHIBITORS” (VYNE THERAPEUTICS INC., priority 2021, published 2025):
“And” between values parts separate entries of the source, which are not always exact repeats. Identical values can stand only once.

Tested on: anti collagen antibodies induced arthritis (ACAIA)
Assay: Anti collagen antibodies induced arthritis (ACAIA) in mice, intra-articular treatment: paw thickness, arthritis clinical score, body weight;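 note: mouse arthritis induced by IV anti-collagen mAb on day 0 plus IP LPS on day 4, with body weight, caliper paw thickness and 0-4 paw score tracked against a day 0 baseline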
Conditions: for Average clinical score per day (untreated): untreated leg
[1] = BETi1 0.1 mg/kg IA (Group 4), Av
[2] = BETi1 0.1 mg/kg IA (Group 4), individual animals, 0.1 mg/kg
[3] = BETi1 1 mg/kg IA (Group 3), individual animals, 1 mg/kg
[4] = BETi1 10 mg/kg IA (Group 2), Av
[5] = BETi1 10 mg/kg IA (Group 2), individual animals, 10 mg/kg

Cn1cc(-c2cccc(O)c2Oc2ccccc2)c2cc[nH]c2c1=O [BETi1]
Weight per day, Day 5 [1]: 18.6 g
Weight per day, Day 6 [1]: 18.1 g
Weight per day, Day 7 [1]: 18.1 g
Weight per day, Day 8 [1]: 17.9 g
Weight per day, Day 10 [1]: 18.1 g
Weight per day, Day 12 [1]: 19.1 g
Weight per day, Baseline [2]: 20.2 g and 21 g and 19.7 g and 21.9 g and 20.3 g and 21.5 g and 18.5 g
Weight per day, Day 3 [2]: 20 g and 21.2 g (2×) and 20.3 g and 22.4 g and 20.6 g and 18.8 g
Weight per day, Day 4 [2]: 20 g and 21.3 g and 18 g and 21.9 g and 20.4 g and 21.4 g and 19.1 g
Weight per day, Day 5 [2]: 18.1 g and 19 g and 16.6 g and 20.5 g and 19.4 g (2×) and 17.4 g
Weight per day, Day 6 [2]: 17.3 g and 18.7 g and 16.5 g and 19.7 g and 18.5 g and 18.9 g and 17.2 g
Weight per day, Day 7 [2]: 17.8 g and 18.8 g (2×) and 16.8 g and 19.5 g and 18.2 g and 16.7 g
Weight per day, Day 8 [2]: 17.5 g and 18.4 g (3×) and 16.7 g and 19.5 g and 16.6 g
Weight per day, Day 10 [2]: 18.2 g and 19 g and 16.8 g (2×) and 19.4 g and 17.7 g and 19.1 g
Weight per day, Day 12 [2]: 18.8 g and 19.9 g and 17.5 g and 20.7 g and 18.7 g and 20.2 g and 18 g
Weight per day, Baseline (BETi1 1 mg/kg IA (Group 3), Av): 20.7 g
Weight per day, Day 3 (BETi1 1 mg/kg IA (Group 3), Av): 20.7 g
Weight per day, Day 4 (BETi1 1 mg/kg IA (Group 3), Av): 21 g
Weight per day, Day 5 (BETi1 1 mg/kg IA (Group 3), Av): 19 g
Weight per day, Day 6 (BETi1 1 mg/kg IA (Group 3), Av): 18.5 g
Weight per day, Day 7 (BETi1 1 mg/kg IA (Group 3), Av): 18.6 g
Weight per day, Day 8 (BETi1 1 mg/kg IA (Group 3), Av): 18.9 g
Weight per day, Day 10 (BETi1 1 mg/kg IA (Group 3), Av): 19.3 g
Weight per day, Day 12 (BETi1 1 mg/kg IA (Group 3), Av): 20.1 g
Weight per day, Baseline [3]: 20.4 g and 22.5 g and 20.3 g and 19.9 g and 21.5 g and 19.7 g and 20.6 g
Weight per day, Day 3 [3]: 20.6 g and 22.1 g and 20.8 g and 19.6 g and 21 g and 19.8 g and 20.9 g
Weight per day, Day 4 [3]: 20.8 g and 22.5 g and 21.1 g and 19.9 g (2×) and 21.7 g and 21 g
Weight per day, Day 5 [3]: 19.1 g and 20.2 g and 19.2 g (2×) and 17.7 g and 17.9 g and 19.5 g
Weight per day, Day 6 [3]: 18.7 g and 18.6 g and 18.8 g (2×) and 18 g and 19.3 g and 17.2 g
Weight per day, Day 7 [3]: 18.3 g and 18.9 g (2×) and 17.8 g and 19.4 g and 17.7 g and 19.2 g
Weight per day, Day 8 [3]: 18.5 g and 19.8 g and 18.8 g and 17.9 g and 19.3 g and 18.2 g and 19.6 g
Weight per day, Day 10 [3]: 18.8 g and 21.3 g and 19 g and 18.6 g and 19.3 g and 18.7 g and 19.2 g
Weight per day, Day 12 [3]: 19.4 g (2×) and 22.5 g and 19.9 g and 19.3 g and 20.1 g (2×)
Weight per day, Baseline [4]: 21.3 g
Weight per day, Day 3 [4]: 21.4 g
Weight per day, Day 4 [4]: 21.5 g
Weight per day, Day 5 [4]: 19.6 g
Weight per day, Day 6 [4]: 19.6 g
Weight per day, Day 7 [4]: 19.5 g
Weight per day, Day 8 [4]: 19.2 g
Weight per day, Day 10 [4]: 19.4 g
Weight per day, Day 12 [4]: 20.2 g
Weight per day, Baseline [5]: 20.2 g and 21.6 g and 20.8 g and 21.7 g and 21.4 g and 22.2 g and 21.3 g
Weight per day, Day 3 [5]: 20.1 g and 21.5 g (2×) and 21.3 g (2×) and 22 g and 21.8 g
Weight per day, Day 4 [5]: 20.2 g and 21.4 g (2×) and 22.4 g and 21.6 g and 21.9 g and 21.7 g
Weight per day, Day 5 [5]: 18.5 g and 20.1 g and 19.3 g and 20.3 g and 19.9 g and 19.4 g
Weight per day, Day 6 [5]: 18.9 g and 19.8 g and 19.2 g and 19.5 g (2×) and 20.4 g
Weight per day, Day 7 [5]: 18.7 g and 19.4 g and 19.5 g and 19.6 g (2×) and 20.3 g
Weight per day, Day 8 [5]: 18.6 g and 19.2 g and 19.6 g and 18.8 g and 20.2 g and 19.1 g
Weight per day, Day 10 [5]: 18.3 g and 19.2 g and 19.8 g and 19.6 g and 20.5 g and 19.3 g
Weight per day, Day 12 [5]: 19.3 g and 20.3 g and 20.4 g and 19.9 g and 21.1 g and 20 g
Average clinical score per day (untreated) (0.01 mg/kg IA (Group 5), Baseline): 0.00 points
Average clinical score per day (untreated) (0.01 mg/kg IA (Group 5), Day 3): 0.00 points
Average clinical score per day (untreated) (0.01 mg/kg IA (Group 5), Day 4): 0.00 points
Average clinical score per day (untreated) (0.01 mg/kg IA (Group 5), Day 5): 0.00 points
Average clinical score per day (untreated) (0.01 mg/kg IA (Group 5), Day 6): 0.86 points
Average clinical score per day (untreated) (0.01 mg/kg IA (Group 5), Day 7): 1.57 points
Average clinical score per day (untreated) (0.01 mg/kg IA (Group 5), Day 8): 1.71 points
Average clinical score per day (untreated) (0.01 mg/kg IA (Group 5), Day 10): 2.14 points
Average clinical score per day (untreated) (0.01 mg/kg IA (Group 5), Day 12): 1.43 points
Average clinical score per day (untreated) (0.1 mg/kg IA (Group 4), Baseline): 0.00 points
Average clinical score per day (untreated) (0.1 mg/kg IA (Group 4), Day 3): 0.00 points
Average clinical score per day (untreated) (0.1 mg/kg IA (Group 4), Day 4): 0.00 points
Average clinical score per day (untreated) (0.1 mg/kg IA (Group 4), Day 5): 0.00 points
Average clinical score per day (untreated) (0.1 mg/kg IA (Group 4), Day 6): 1.14 points
Average clinical score per day (untreated) (0.1 mg/kg IA (Group 4), Day 7): 2.00 points
Average clinical score per day (untreated) (0.1 mg/kg IA (Group 4), Day 8): 2.29 points
Average clinical score per day (untreated) (0.1 mg/kg IA (Group 4), Day 10): 2.57 points
Average clinical score per day (untreated) (0.1 mg/kg IA (Group 4), Day 12): 3.00 points
Average clinical score per day (untreated) (1 mg/kg IA (Group 3), Baseline): 0.00 points
Average clinical score per day (untreated) (1 mg/kg IA (Group 3), Day 3): 0.00 points
Average clinical score per day (untreated) (1 mg/kg IA (Group 3), Day 4): 0.00 points
Average clinical score per day (untreated) (1 mg/kg IA (Group 3), Day 5): 0.00 points
Average clinical score per day (untreated) (1 mg/kg IA (Group 3), Day 6): 0.71 points
Average clinical score per day (untreated) (1 mg/kg IA (Group 3), Day 7): 1.43 points
Average clinical score per day (untreated) (1 mg/kg IA (Group 3), Day 8): 2.43 points
Average clinical score per day (untreated) (1 mg/kg IA (Group 3), Day 10): 2.00 points
Average clinical score per day (untreated) (1 mg/kg IA (Group 3), Day 12): 2.43 points
Average clinical score per day (untreated) (10 mg/kg IA (Group 2), Baseline): 0.00 points
Average clinical score per day (untreated) (10 mg/kg IA (Group 2), Day 3): 0.00 points
Average clinical score per day (untreated) (10 mg/kg IA (Group 2), Day 4): 0.00 points
Average clinical score per day (untreated) (10 mg/kg IA (Group 2), Day 5): 0.00 points
Average clinical score per day (untreated) (10 mg/kg IA (Group 2), Day 6): 0.83 points
Average clinical score per day (untreated) (10 mg/kg IA (Group 2), Day 7): 1.83 points
Average clinical score per day (untreated) (10 mg/kg IA (Group 2), Day 8): 3.00 points
Average clinical score per day (untreated) (10 mg/kg IA (Group 2), Day 10): 3.00 points
Average clinical score per day (untreated) (10 mg/kg IA (Group 2), Day 12): 3.33 points
